This passage reports EC50 results from US20250296936A1, “SARS-COV2 MAIN PROTEASE INHIBITORS” (Gilead Sciences, Inc., priority 2024, published 2025).

Like-named read-outs stand apart in the source and are kept apart here.

The subject of this assay is SARS-CoV-2-NLuc in A549-hACE2 cells. Put plainly: microbe, parasite or virus in culture. The assay is classed as cell-based, SARS Coronavirus 2. Conditions: Severe acute respiratory syndrome coronavirus, 48 h.

Usually EC50 stands for the concentration needed to bring the measured effect to its halfway point.

Regarding `COc1cc(-c2cc3c(o2)c(=O)n(-c2cncc4cnn(C)c24)c(=O)n3C)c(Cl)cc1F` [Example 30], the EC50 (read-out: MPro EC50 (nM)) came to 683 nM.

`Cn1c(=O)n(-c2cncc3ccccc23)c(=O)c2oc(-c3ccccc3Cl)cc21` [Example 31]: the EC50 (read-out: MPro EC50 (nM)) was 565 nM.

For the molecule `COc1ccc2cncc(-n3c(=O)c4oc(-c5ccccc5Cl)cc4n(C)c3=O)c2c1` [Example 32], the EC50 (read-out: MPro EC50 (nM)) was found to be 381 nM.

`Cn1c(=O)n(-c2cncc3ccccc23)c(=O)c2cc(-c3ccccc3Cl)oc21` [Example 33]: the EC50 (read-out: MPro EC50 (nM)) came out at 145 nM.

On to `Cn1c(=O)n(-c2cncc3c2CCCC3)c(=O)c2oc(-c3ccccc3Cl)cc21` [Example 34], for which the EC50 (read-out: MPro EC50 (nM)) is 960 nM.

Regarding `Cc1cncc(-n2c(=O)c3oc(-c4ccccc4Cl)cc3n(C)c2=O)c1` [Example 35], the EC50 (read-out: MPro EC50 (nM)) came out at 726 nM.

`Cn1c(=O)n(-c2cncc3ccccc23)c(=O)c2oc(-c3ccc(F)cc3Cl)cc21` [Example 36]: the EC50 (read-out: MPro EC50 (nM)) was 3270 nM.

Regarding `COc1cc(-c2cc3c(o2)c(=O)n(-c2cncc4ccccc24)c(=O)n3CC#N)c(Cl)cc1F` [Example 37, 2-(6-(2-chloro-4-fluoro-5-methoxyphenyl)-3-(isoquinolin-4-yl)-2,4-dioxo-3,4-dihydrofuro[3,2-d]pyrimidin-1(2H)-yl)acetonitrile], the EC50 (read-out: MPro EC50) was found to be 15.8 nM.

`Cn1ncc2cncc(-n3c(=O)c4oc(-c5ccccc5Cl)cc4n(CC#N)c3=O)c21` [Example 38]: the EC50 (read-out: MPro EC50 (nM)) was 88 nM.

In the case of `COc1cc(-c2cc3c(o2)c(=O)n(-c2cncc4cnn(C)c24)c(=O)n3CC#N)c(Cl)cc1F` [Example 39], for the setting “read-out: MPro EC50 (nM)”, the EC50 came to 50.7 nM.

For the molecule `N#CCn1c(=O)n(-c2cncc3ccccc23)c(=O)c2oc(-c3ccccc3Cl)cc21` [Example 40], the EC50 (read-out: MPro EC50 (nM)) was found to be 20.1 nM.

Turning to `COc1ccc2cncc(-n3c(=O)c4oc(-c5ccccc5Cl)cc4n(CC#N)c3=O)c2c1` [Example 41], the EC50 (read-out: MPro EC50 (nM)) was found to be 16.6 nM.

Consider `N#CCn1c(=O)n(-c2cncc3c2CCCC3)c(=O)c2oc(-c3ccccc3Cl)cc21` [Example 42], for which the EC50 (read-out: MPro EC50 (nM)) was 36.7 nM.

For the molecule `N#CCn1c(=O)n(-c2cncc3ccc(F)cc23)c(=O)c2oc(-c3ccccc3Cl)cc21` [Example 43], the EC50 (read-out: MPro EC50 (nM)) turned out to be 25.3 nM.

As to `Cc1cncc(-n2c(=O)c3oc(-c4ccccc4Cl)cc3n(CC#N)c2=O)c1` [Example 45], the EC50 (read-out: MPro EC50 (nM)) was 52.3 nM.

`N#CCn1c(=O)n(-c2cncc3ccccc23)c(=O)c2oc(-c3ccc(F)cc3Cl)cc21` [Example 46]: the EC50 (read-out: MPro EC50 (nM)) turned out to be 58.4 nM.

Consider `COc1cc(-c2cc3c(o2)c(=O)n(-c2cncc4ccccc24)c(=O)n3CC2(C#N)CC2)c(Cl)cc1F` [Example 47, 1-((6-(2-chloro-4-fluoro-5-methoxyphenyl)-3-(isoquinolin-4-yl)-2,4-dioxo-3,4-dihydrofuro[3,2-d]pyrimidin-1(2H)-yl)methyl)cyclopropane-1-carbonitrile], for which the concentration giving a half-maximal response (EC50) (read-out: MPro EC50) was 29.4 nM.

`Cn1ncc2cncc(-n3c(=O)c4oc(-c5ccccc5Cl)cc4n(CC4(C#N)CC4)c3=O)c21` [Example 48]: the EC50 (read-out: MPro EC50 (nM)) worked out at 8.36 nM.

`COc1cc(-c2cc3c(o2)c(=O)n(-c2cncc4cnn(C)c24)c(=O)n3CC2(C#N)CC2)c(Cl)cc1F` [Example 49]: the EC50 (read-out: MPro EC50 (nM)) is 12.2 nM.

For `N#CC1(Cn2c(=O)n(-c3cncc4ccccc34)c(=O)c3oc(-c4ccccc4Cl)cc32)CC1` [Example 50], the EC50 (read-out: MPro EC50 (nM)) came out at 6.99 nM.

In the case of `COc1ccc2cncc(-n3c(=O)c4oc(-c5ccccc5Cl)cc4n(CC4(C#N)CC4)c3=O)c2c1` [Example 51], the EC50 (read-out: MPro EC50 (nM)) was 12.1 nM.

As to `N#CC1(Cn2c(=O)n(-c3cncc4ccc(F)cc34)c(=O)c3oc(-c4ccccc4Cl)cc32)CC1` [Example 52], for the setting “read-out: MPro EC50 (nM)”, the EC50 is 11.8 nM.

As to `Cc1cncc(-n2c(=O)c3oc(-c4ccccc4Cl)cc3n(CC3(C#N)CC3)c2=O)c1` [Example 53], the half-maximal effective concentration (EC50) (read-out: MPro EC50 (nM)) stood at 12.8 nM.

`N#CC1(Cn2c(=O)n(-c3cncc4ccccc34)c(=O)c3oc(-c4ccc(F)cc4Cl)cc32)CC1` [Example 54]: the EC50 (read-out: MPro EC50 (nM)) turned out to be 18 nM.
